Results: article PMC4751996 (Journal of medicinal chemistry, 2015)
Residues, ends and D or L forms follow the SMILES beside them.

Tests used:
[1] = tested on: MDA-MB-231 and HCT116 cell lines; assay: Growth inhibition screen, 3 day exposure, relative DNA content; details: 72 h; for inhibition at 1 µM: read-out: Drug Effect (avg) (1 μM); for inhibition at 10 µM: read-out: Drug Effect (avg) (10 μM)
hRRM1 [2] = molecular target: T1, hRRM1 (Homo sapiens, UniProt P23921); assay: Tryptophan fluorescence quenching of hRRM1 at fixed ligand concentration; details: ligand 50 μM; hRRM1 0.1 mg/mL; excitation 295 nm
T1 sequence (P23921 1-792): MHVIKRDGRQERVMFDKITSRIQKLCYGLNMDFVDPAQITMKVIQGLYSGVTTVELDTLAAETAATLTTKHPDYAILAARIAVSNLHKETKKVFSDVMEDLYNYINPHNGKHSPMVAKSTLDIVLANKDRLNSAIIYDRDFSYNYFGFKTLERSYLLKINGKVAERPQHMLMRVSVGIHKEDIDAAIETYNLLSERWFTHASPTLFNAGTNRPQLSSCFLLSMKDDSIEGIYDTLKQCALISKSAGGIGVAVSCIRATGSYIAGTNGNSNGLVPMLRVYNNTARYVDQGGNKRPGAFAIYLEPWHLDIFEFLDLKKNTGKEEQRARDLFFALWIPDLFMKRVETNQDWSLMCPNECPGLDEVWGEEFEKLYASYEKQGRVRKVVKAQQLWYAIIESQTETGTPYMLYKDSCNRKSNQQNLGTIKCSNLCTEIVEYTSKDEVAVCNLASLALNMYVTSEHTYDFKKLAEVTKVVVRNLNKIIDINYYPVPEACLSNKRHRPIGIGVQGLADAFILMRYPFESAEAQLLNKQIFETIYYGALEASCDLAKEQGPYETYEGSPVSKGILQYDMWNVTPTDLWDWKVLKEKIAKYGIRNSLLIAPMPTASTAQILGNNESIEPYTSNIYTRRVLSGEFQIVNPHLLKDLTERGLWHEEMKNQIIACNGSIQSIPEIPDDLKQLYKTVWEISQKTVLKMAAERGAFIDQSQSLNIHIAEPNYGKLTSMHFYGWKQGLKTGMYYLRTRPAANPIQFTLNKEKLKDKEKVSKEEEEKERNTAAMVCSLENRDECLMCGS

hRRM1 [3] = molecular target: T1, hRRM1; assay: Gel filtration chromatography of hRRM1 oligomeric state; details: 50 μM dATP alone

% Fluorescence quenching (hRRM1 [2])	hexamer to dimer ratio based on integration of the peaks (hRRM1 [3])	Structure (SMILES)	inhibition at 1 µM [1]	inhibition at 10 µM [1]
		CCCOc1ccc(C(=O)OCCN(CC)CC)cc1NS(=O)(=O)/C=C/c1ccccc1 [Compound 6]	-3.3%	4.3%
		CCOC(=O)C[C@@H](CC(=O)NCCN[C@H](C)c1ccc(O)c(C(=O)OC)c1)OC(C)=O [Compound 9]	9.8%	9.6%
No tryptophan fluorescence quenching		CC(C)C[C@H](NC(=O)[C@@H]1CCCN1C(=O)[C@H](Cc1cnc[nH]1)NC(=O)[C@@H](NC(=O)[C@H](Cc1ccc(O)cc1)NC(=O)[C@@H](NC(=O)[C@@H](N)CCCNC(=N)N)C(C)C)C(C)C)C(=O)O [Compound 100207] (H-RVYVHPL-OH)		
No tryptophan fluorescence quenching		CC(C)=CCC/C(C)=C/CNC(=O)CNC(c1ccc[nH]1)C(F)(F)F (stereo not shown) [Compound 184612]		
		CCCCCCCCCCCCCCNC(=O)[C@@H](N)CCN [Compound 3]	7.2%	69%
		CCCCCCCCCCCCCCCC(=O)N[C@@H](CCCCN)C(=O)N[C@@H](CCCCN)C(=O)OC [Compound 10]	-21.9%	-8.9%
	approximately 3 fold	Nc1ncnc2c1ncn2[C@H]1C[C@H](O)[C@@H](COP(=O)(O)OP(=O)(O)OP(=O)(O)O)O1 [dATP, deoxyadenosine 5′-triphosphate]		
		CCC(C)(C)c1ccc(OCCCCNC(=O)c2cc(Oc3ccc([N+](=O)[O-])cc3)c3ccccc3c2O)c(C(C)(C)CC)c1 [Compound 5]	3.8%	39.8%
		OC(COc1ccc(OCC(O)CN2CCN(C3c4ccccc4-c4ccccc43)CC2)cc1)CN1CCN(C2c3ccccc3-c3ccccc32)CC1 (stereo not shown) [Compound 1]	-39.6%	88%
		CC(NCCCCCO)c1cc(OCc2ccccc2)cc(OCc2ccccc2)c1 (stereo not shown) [Compound 8]	-7.6%	3.6%
		CCOC(=O)C(NC(=O)CN[C@H]1CCCc2sccc21)C(=O)OCC [Compound 2]	-19.9%	53.1%
